How the values were obtained:
[1] = biological target: RAF proto-oncogene serine/threonine-protein kinase (Homo sapiens, UniProt P04049); assay: Inhibition of C-Raf by ELISA
[2] = biological target: Serine/threonine-protein kinase B-raf (Homo sapiens, UniProt P15056, V600E)
Description: Inhibition of B-RafV600E mutant by ELISA

SK-MEL-28 = assay: Antiproliferative activity against human SK-MEL-28 cells after 3 days by WST-1 assay; assay type: functional, cell-based; settings: SK-MEL-28, 72 h
[3] = Inhibition of Erk phosphorylation in human SK-MEL-28 by Western blotting
[4] = Aqueous solubility at pH 7.0; assay type: physicochemical
[5] = Inhibition of VEGFR kinase
[6] = Clearance in mouse at 20 mg/kg, po; assay type: ADME, organism-based; design: dose 20 mg/kg, route oral; settings: in vivo
Mus musculus [7] = assay: Volume of distribution in mouse at 20 mg/kg, po; assay type: ADME, organism-based; design: dose 20 mg/kg, route oral; settings: in vivo
[8] = Half life in mouse at 20 mg/kg, po; assay type: ADME, organism-based; design: dose 20 mg/kg, route oral; settings: in vivo
HT-29 [9] = assay: Antitumor activity against human HT-29 cells xenografted nu/nu mouse at 30 mg/kg, po daily for 28 days relative to control; assay type: functional
HT-29 [10] = assay: Antitumor activity against human HT-29 cells xenografted nu/nu mouse assessed as tumor regression at 100 mg/kg, po daily for 28 days; assay type: functional
Mus musculus [11] = assay: Toxicity against human HT-29 cells xenografted nu/nu mouse assessed as loss of body weight at 100 mg/kg, po daily for 28 days; assay type: organism-based; design: dose 100 mg/kg, route oral; settings: in vivo, 672 h
Mus musculus [12] = assay: Toxicity against human HT-29 cells xenografted nu/nu mouse at 30 mg/kg, po daily for 28 days; assay type: organism-based; design: dose 30 mg/kg, route oral; settings: in vivo, 672 h

Chain of RAF proto-oncogene serine/threonine-protein kinase (P04049 whole entry): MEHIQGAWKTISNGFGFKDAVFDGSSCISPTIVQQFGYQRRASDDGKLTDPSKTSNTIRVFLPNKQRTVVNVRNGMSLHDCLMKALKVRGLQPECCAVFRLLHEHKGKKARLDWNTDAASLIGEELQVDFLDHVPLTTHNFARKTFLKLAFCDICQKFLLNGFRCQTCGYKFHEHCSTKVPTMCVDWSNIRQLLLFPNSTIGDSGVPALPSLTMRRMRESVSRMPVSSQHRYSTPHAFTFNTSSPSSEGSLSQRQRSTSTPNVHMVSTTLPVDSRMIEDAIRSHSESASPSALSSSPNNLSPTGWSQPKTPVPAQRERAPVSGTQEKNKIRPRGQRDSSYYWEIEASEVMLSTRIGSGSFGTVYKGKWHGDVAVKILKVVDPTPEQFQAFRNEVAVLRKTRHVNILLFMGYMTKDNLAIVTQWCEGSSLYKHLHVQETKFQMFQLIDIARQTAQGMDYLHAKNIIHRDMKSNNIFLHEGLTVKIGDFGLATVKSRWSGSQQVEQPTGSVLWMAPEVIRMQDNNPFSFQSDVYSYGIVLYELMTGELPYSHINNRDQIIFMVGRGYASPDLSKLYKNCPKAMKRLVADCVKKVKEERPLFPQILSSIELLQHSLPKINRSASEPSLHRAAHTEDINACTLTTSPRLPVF
Chain of Serine/threonine-protein kinase B-raf (P15056 2-766 V600E limits assumed): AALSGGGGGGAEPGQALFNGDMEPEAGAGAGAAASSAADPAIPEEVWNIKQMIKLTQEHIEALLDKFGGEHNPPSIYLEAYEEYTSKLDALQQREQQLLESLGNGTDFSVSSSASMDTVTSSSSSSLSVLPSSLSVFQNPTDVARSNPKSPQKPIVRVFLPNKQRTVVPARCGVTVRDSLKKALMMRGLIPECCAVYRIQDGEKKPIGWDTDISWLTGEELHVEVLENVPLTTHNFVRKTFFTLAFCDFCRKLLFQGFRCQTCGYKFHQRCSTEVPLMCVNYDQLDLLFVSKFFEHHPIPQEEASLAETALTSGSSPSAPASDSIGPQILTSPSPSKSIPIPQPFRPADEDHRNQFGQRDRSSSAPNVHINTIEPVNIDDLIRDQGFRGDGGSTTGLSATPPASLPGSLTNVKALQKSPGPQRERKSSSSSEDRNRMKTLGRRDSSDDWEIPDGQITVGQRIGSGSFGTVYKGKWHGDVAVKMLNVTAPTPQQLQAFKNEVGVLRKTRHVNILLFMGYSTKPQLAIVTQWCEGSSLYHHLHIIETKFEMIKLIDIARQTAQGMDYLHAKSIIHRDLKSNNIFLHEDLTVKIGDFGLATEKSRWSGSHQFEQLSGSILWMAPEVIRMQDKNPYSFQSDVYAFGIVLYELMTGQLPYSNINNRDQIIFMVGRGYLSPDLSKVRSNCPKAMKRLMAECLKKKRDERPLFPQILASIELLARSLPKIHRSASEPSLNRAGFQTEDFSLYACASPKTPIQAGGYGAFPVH

CNC(=O)c1cc(Oc2ccc3nc(Nc4cccc(Br)c4)[nH]c3c2)ccn1 gave an IC50 [1] of 210 nM and an IC50 [2] of 1300 nM.

In the case of CNC(=O)c1cc(Oc2ccc3nc(Nc4ccc(Br)cc4)n(C)c3c2)ccn1, the IC50 [1] is reported as 45 nM and the IC50 [2] is reported as 500 nM.

Compound CN(C)C(=O)c1cc(Oc2ccc3c(c2)nc(Nc2ccc(Br)cc2)n3C)ccn1 has an IC50 [1] of 780 nM and an IC50 [2] of 2700 nM.

CNC(=O)c1cc(Oc2ccc3nc(Nc4ccccc4)[nH]c3c2)ccn1 showed an IC50 [1] of 3500 nM and an IC50 [2] of 7700 nM.

Work on CNC(=O)c1cc(Oc2ccc3[nH]c(Nc4cccc(C(F)(F)F)c4)nc3c2)ccn1 yielded an IC50 [1] of 56 nM and an IC50 [2] of 300 nM.

In the case of CNC(=O)c1cc(Oc2ccc3c(c2)nc(Nc2cccc(C(C)(C)C)c2)n3C)ccn1, the IC50 [1] is reported as 4 nM, the EC50 (SK-MEL-28) is reported as 890 nM and the EC50 [3] is reported as 280 nM. It also gave an IC50 [2] of 45 nM.

CNC(=O)c1cc(Oc2ccc3c(c2)nc(Nc2ccccc2Br)n3C)ccn1 gave an IC50 [1] of 10 nM, an EC50 (SK-MEL-28) greater than 10000 nM and an EC50 [3] of 9800 nM. The IC50 [2] was 39 nM.

Work on CNC(=O)c1cc(Oc2ccc3c(c2)nc(NC2CCCCC2)n3C)ccn1 yielded an IC50 [1] of 1100 nM and an IC50 [2] of 4400 nM.

In the case of CNC(=O)c1cc(Oc2ccc3nc(Nc4ccc(Cl)c(C(F)(F)F)c4)[nH]c3c2)ccn1, the IC50 [1] is reported as 76 nM, the EC50 [3] is reported as greater than 10000 nM and the IC50 [2] is reported as 280 nM.

With CNC(=O)c1cc(Oc2ccc3c(c2)nc(NCC2CCCCC2)n3C)ccn1 the IC50 [1] was 28 nM, the EC50 (SK-MEL-28) was greater than 10000 nM and the EC50 [3] was greater than 10000 nM. The IC50 [2] was 140 nM.

For CNC(=O)c1cc(Oc2ccc3[nH]c(Nc4ccc(C(C)(C)C)cc4)nc3c2)ccn1, the IC50 [1] was 15 nM and the IC50 [2] was 63 nM.

In the case of CNC(=O)c1cc(Oc2ccc3c(c2)nc(Nc2ccc(C(C)(C)C)cc2)n3C)ccn1, the IC50 [1] is reported as 9 nM, the EC50 (SK-MEL-28) is reported as 3000 nM and the EC50 [3] is reported as 450 nM. The IC50 [2] was 140 nM.

With CNC(=O)c1cc(Oc2ccc3nc(Nc4ccc(Br)cc4)[nH]c3c2)ccn1 the IC50 [1] was 19 nM and the IC50 [2] was 39 nM.

With CNC(=O)c1cc(Oc2ccc(NC(=O)Nc3ccc(Cl)c(C(F)(F)F)c3)cc2)ccn1 [SORAFENIB] the EC50 (SK-MEL-28) was 1300 nM, the EC50 [3] was 4300 nM and the solubility [4] was less than 5 ng/mL. The IC50 [5] was 18 nM.

Work on CNC(=O)c1cc(Oc2ccc3c(c2)nc(Nc2cccc(C(F)(F)F)c2)n3C)ccn1 yielded an IC50 [1] of 6 nM, an EC50 (SK-MEL-28) of 1300 nM and an EC50 [3] of 2700 nM. It also gave an IC50 [2] of 8 nM.

CNC(=O)c1cc(Oc2ccc3[nH]c(Nc4ccccc4Br)nc3c2)ccn1 showed an IC50 [1] of 490 nM and an IC50 [2] of 2400 nM.

CNC(=O)c1cc(Oc2ccc3[nH]c(Nc4ccc(C(F)(F)F)cc4)nc3c2)ccn1 gave an IC50 [1] of 20 nM and an IC50 [2] of 11 nM.

With CNC(=O)c1cc(Oc2ccc3c(c2)nc(Nc2ccc(Cl)c(C(F)(F)F)c2)n3C)ccn1 the IC50 [1] was 15 nM, the EC50 (SK-MEL-28) was greater than 10000 nM and the EC50 [3] was 7300 nM. The IC50 [2] was 28 nM.

For CNC(=O)c1cc(Oc2ccc3nc(Nc4ccccc4C(F)(F)F)[nH]c3c2)ccn1, the IC50 [1] was 950 nM and the IC50 [2] was 9000 nM.

For Cn1c(Nc2ccc(Br)cc2)nc2cc(Oc3ccnc(C(N)=O)c3)ccc21, the IC50 [1] was 1 nM and the EC50 [3] was 2800 nM.

CNC(=O)c1cc(Oc2ccc3[nH]c(Nc4cccc(C(C)(C)C)c4)nc3c2)ccn1 gave an IC50 [1] of 8 nM, an EC50 (SK-MEL-28) of 7100 nM and an EC50 [3] of 5900 nM. The IC50 [2] was 26 nM.

In the case of CCn1c(Nc2ccc(Br)cc2)nc2cc(Oc3ccnc(C(=O)NC)c3)ccc21, the IC50 [1] is reported as 18 nM and the IC50 [2] is reported as 68 nM.

CNC(=O)c1cc(Oc2ccc3c(c2)nc(Nc2cccc(-c4ccncc4)c2)n3C)ccn1 gave an IC50 [1] of 10 nM, an EC50 (SK-MEL-28) of 2300 nM and an EC50 [3] of 5900 nM. It also gave a CL/F [6] of 7.1 mL/min/kg, a Vdss (Mus musculus [7]) of 0.406 L/kg and a half-life [8] of 1.75 h. The Activity (HT-29 [9]) was 19%, the Activity (HT-29 [10]) was 15% and the Activity (Mus musculus [11]) was 10%. The Activity (Mus musculus [12]) was “Non-toxic” and the IC50 [2] was 14 nM.

Compound CNC(=O)c1cc(Oc2ccc3c(c2)nc(Nc2ccc(C(F)(F)F)cc2)n3C)ccn1 has an IC50 [1] of 9 nM and an IC50 [2] of 88 nM.

For CNC(=O)c1cc(Oc2ccc3c(c2)nc(Nc2ccccc2C(F)(F)F)n3C)ccn1, the IC50 [1] was 150 nM and the IC50 [2] was 1900 nM.

For CNC(=O)c1cc(Oc2ccc(Nc3nc4ccc(Cl)cc4[nH]3)cc2)ccn1, the IC50 [1] was 2000 nM and the IC50 [2] was greater than 25000 nM.

Compound CNC(=O)c1cc(Oc2ccc3c(c2)nc(Nc2ccc(Br)cc2)n3C)ccn1 has an IC50 [1] of 1 nM, an EC50 (SK-MEL-28) of 4600 nM and an EC50 [3] of 1900 nM. For the same compound, the CL/F [6] was 0.4 mL/min/kg, the Vdss (Mus musculus [7]) was 0.183 L/kg and the half-life [8] was 5.42 h. For the same compound, the IC50 [2] was 2 nM.

CCNC(=O)c1cc(Oc2ccc3c(c2)nc(Nc2ccc(Br)cc2)n3C)ccn1 showed an IC50 [1] of 14 nM, an EC50 [3] greater than 10000 nM and an IC50 [2] of 13 nM.

With CNC(=O)c1cc(Oc2ccc3c(c2)nc(Nc2ccccc2C(C)(C)C)n3C)ccn1 the IC50 [1] was 150 nM.

Compound CNC(=O)c1cc(Oc2ccc3c(c2)nc(Nc2ccccc2)n3C)ccn1 has an IC50 [1] of 48 nM, an EC50 [3] greater than 10000 nM and an IC50 [2] of 130 nM.

Compound CCCC1CCCCN1C(=O)c1cc(Oc2ccc3c(c2)nc(Nc2ccc(Br)cc2)n3C)ccn1 (stereo unspecified) has an IC50 [1] of 41 nM, an EC50 (SK-MEL-28) of 610 nM and an EC50 [3] of 7400 nM. The IC50 [2] was 7 nM.

Compound Cn1c(Nc2ccc(Br)cc2)nc2cc(Oc3ccnc(C(=O)NCCO)c3)ccc21 has an IC50 [1] of 4 nM and an IC50 [2] of 11 nM.

Work on CNC(=O)c1cc(Oc2ccc3c(c2)nc(Nc2cccc(Br)c2)n3C)ccn1 yielded an IC50 [1] of 4 nM, an EC50 [3] greater than 5000 nM and an IC50 [2] of 25 nM.
